Each structure is given as a SMILES string. Where two headings read alike, the source gives them in different places.

This assay deals with BRD4 (Homo sapiens, UniProt O60885). Put plainly: Time Resolved Fluorescence Resonance Energy Transfer (TR-FRET) binding assay, FRET BRD4. Conditions: one of the FRET assays described (BRD4 bromodomain construct not specified). On the technique in general: In TR-FRET formats the signal depends on donor and acceptor labels being close together.

In general, IC50 refers to the point on the concentration scale where inhibition reaches its midpoint. On to `Cc1nnn(C)c1-c1cnc2c3ccc(N4CCN(C(=O)N(C)C)CC4)cc3n([C@H](c3ccccc3)C3CCOCC3)c2c1` [Example 49, 4-[3-(Dimethyl-1H-1,2,3-triazol-5-yl)-5-[(S)-oxan-4-yl(phenyl)methyl]-5H-pyrido[3,2-b]indol-7-yl]-N,N-dimethylpiperazine-1-carboxamide], for which the IC50 (read-out: FRET BRD4 IC50) was under 5 nM.

In the case of `Cc1nnn(C)c1-c1cnc2c3c(N4CCN(CC(N)=O)CC4)ccc(S(C)(=O)=O)c3n([C@H](c3ccccc3)C3CCOCC3)c2c1` [Example 22, 2-{4-[3-(Dimethyl-1H-1,2,3-triazol-5-yl)-6-methanesulfonyl-5-[(S)-oxan-4-yl(phenyl)methyl]-5H-pyrido[3,2-b]indol-9-yl]piperazin-1-yl}acetamide], the IC50 (read-out: FRET BRD4 IC50) is under 5 nM.

`Cc1nnn(C)c1-c1cnc2c3ccc(-c4ccon4)cc3n([C@H](c3ccccc3)C3CCOCC3)c2c1` [Example 2, 1,4-Dimethyl-5-{5-[(S)-oxan-4-yl(phenyl)methyl]-7-(1,2-oxazol-3-yl)-5H-pyrido[3,2-b]indol-3-yl}-1H-1,2,3-triazole]: the IC50 (read-out: FRET BRD4 IC50) was under 5 nM.

For `Cc1nnn(C)c1-c1cnc2c3ccc(N4CCC(C(F)(F)F)CC4)cc3n(C(c3ccccc3)C3CCC(F)(F)CC3)c2c1` (single isomer, unassigned) [Example 77, 1-{5-[(4,4-Difluorocyclohexyl)(phenyl)methyl]-3-(dimethyl-1H-1,2,3-triazol-5-yl)-5H-pyrido[3,2-b]indol-7-yl}-4-(trifluoromethyl)piperidine], the IC50 (read-out: FRET BRD4 IC50) was under 1 nM.

As to `Cc1nnn(C)c1-c1cnc2c3ccc(N4CCS(=O)(=O)CC4)cc3n([C@H](c3ccccc3)C3CCOCC3)c2c1` [Example 44, 4-[3-(Dimethyl-1H-1,2,3-triazol-5-yl)-5-[(S)-oxan-4-yl(phenyl)methyl]-5H-pyrido[3,2-b]-indol-7-yl]-1λ^6-thiomorpholine-1,1-dione], the IC50 (read-out: FRET BRD4 IC50) was under 1 nM.

For the molecule `[2H]C([2H])([2H])c1nnn(C)c1-c1cnc2c3c(N4CCCS4(=O)=O)ccc(S(C)(=O)=O)c3n([C@H](c3ccc(F)cc3)C3CCOCC3)c2c1` [Example 33, 2-{5-[(S)-(4-Fluorophenyl)(oxan-4-yl)methyl]-6-methanesulfonyl-3-[4-(^2H3)methyl-1-methyl-1H-1,2,3-triazol-5-yl]-5H-pyrido[3,2-b]indol-9-yl}-1λ^6,2-thiazolidine-1,1-dione], the IC50 (read-out: FRET BRD4 IC50) was under 1 nM.

`Cc1nnn(C)c1-c1cnc2c3c(N4CCN(C(=O)OC(C)(C)C)CC4)ccc(S(C)(=O)=O)c3n([C@H](c3ccccc3)C3CCOCC3)c2c1` [Example 25, tert-Butyl 4-[3-(dimethyl-1H-1,2,3-triazol-5-yl)-6-methanesulfonyl-5-[(S)-oxan-4-yl(phenyl)methyl]-5H-pyrido[3,2-b]indol-9-yl]piperazine-1-carboxylate]: for the setting “read-out: FRET BRD4 IC50”, the IC50 is under 5 nM.

As for `[2H]C([2H])([2H])c1nnn(C)c1-c1cnc2c3c(N4CCCS4(=O)=O)ccc(S(C)(=O)=O)c3n(C(c3ncccc3F)C3CCOCC3)c2c1` (stereo not shown) [Example 35, 2-{5-[(3-Fluoropyridin-2-yl)(oxan-4-yl)methyl]-6-methanesulfonyl-3-[4-(^2H3)methyl-1-methyl-1H-1,2,3-triazol-5-yl]-5H-pyrido[3,2-b]indol-9-yl}-1λ^6,2-thiazolidine-1,1-dione], the IC50 (read-out: FRET BRD4 IC50) was under 1 nM.

As for `Cc1nnn(C)c1-c1cnc2c3cc(C4CCNCC4)ccc3n([C@H](c3ccccc3)C3CCOCC3)c2c1` [Example 4, 4-[3-(Dimethyl-1H-1,2,3-triazol-5-yl)-5-[(S)-oxan-4-yl(phenyl)methyl]-5H-pyrido[3,2-b]indol-8-yl]piperidine], where the note is “read-out: FRET BRD4 IC50”, the IC50 was under 1 nM.

On to `[2H]C([2H])([2H])c1nnn(C)c1-c1cnc2c3cc(N4CCN(S(C)(=O)=O)CC4)ccc3n([C@H](c3ccc(F)cc3)C3CCOCC3)c2c1` [Example 40, 1-{5-[(S)-(4-Fluorophenyl)(oxan-4-yl)methyl]-3-[4-(^2H3)methyl-1-methyl-1H-1,2,3-triazol-5-yl]-5H-pyrido[3,2-b]indol-8-yl}-4-methanesulfonylpiperazine], for which the IC50 (read-out: FRET BRD4 IC50) is under 1 nM.

Consider `[2H]C([2H])([2H])c1nnn(C)c1-c1cnc2c3c(N4CCS(=O)(=O)CC4)ccc(S(C)(=O)=O)c3n([C@H](c3ccccc3)C3CCOCC3)c2c1` [Example 24, 4-{6-Methanesulfonyl-3-[4-(^2H3)methyl-1-methyl-1H-1,2,3-triazol-5-yl]-5-[(S)-oxan-4-yl(phenyl)methyl]-5H-pyrido[3,2-b]indol-9-yl}-1λ^6-thiomorpholine-1,1-dione], for which the IC50 (read-out: FRET BRD4 IC50) is under 5 nM.

Turning to `[2H]C([2H])([2H])c1nnn(C)c1-c1cnc2c3ccc(C4(O)CCOCC4)c(F)c3n([C@H](c3ccccc3)C3CCOCC3)c2c1` [Example 62, 4-{6-Fluoro-3-[4-(^2H3)methyl-1-methyl-1H-1,2,3-triazol-5-yl]-5-[(S)-oxan-4-yl(phenyl)methyl]-5H-pyrido[3,2-b]indol-7-yl}oxan-4-ol], under “read-out: FRET BRD4 IC50”, the IC50 is under 1 nM.

As to `Cc1nnn(C)c1-c1cnc2c3ccc(N4CCC(C(F)(F)F)CC4)cc3n([C@H](c3ccccc3)C3CCOCC3)c2c1` [Example 72, 1-[3-(Dimethyl-1H-1,2,3-triazol-5-yl)-5-[(S)-oxan-4-yl(phenyl)methyl]-5H-pyrido[3,2-b]indol-7-yl]-4-(trifluoromethyl)piperidine], the IC50 (read-out: FRET BRD4 IC50) was under 1 nM.

For the molecule `[2H]C([2H])([2H])n1nnc(OC)c1-c1ccc2c3ncc(-c4c(OC)nnn4C([2H])([2H])[2H])cc3n([C@H](c3ccccc3)C3CCOCC3)c2c1` [Example 30, 4-Methoxy-5-{7-[4-methoxy-1-(^2H3)methyl-1H-1,2,3-triazol-5-yl]-5-[(S)-oxan-4-yl(phenyl)-methyl]-5H-pyrido[3,2-b]indol-3-yl}-1-(^2H3)methyl-1H-1,2,3-triazole], the IC50 (read-out: FRET BRD4 IC50) was under 5 nM.

As to `[2H]C([2H])([2H])c1nnn(C)c1-c1cnc2c3ccc(N4CCN(S(C)(=O)=O)CC4)cc3n([C@H](c3ccccc3)C3CCOCC3)c2c1` [Example 46, 1-Methanesulfonyl-4-{3-[4-(^2H3)methyl-1-methyl-1H-1,2,3-triazol-5-yl]-5-[(S)-oxan-4-yl(phenyl)methyl]-5H-pyrido[3,2-b]indol-7-yl}piperazine], where the note is “read-out: FRET BRD4 IC50”, the IC50 was under 1 nM.

With `[2H]C([2H])([2H])c1nnn(C)c1-c1cnc2c3ccc(C4(C)COC(=O)N4)c(F)c3n([C@H](c3ccccc3)C3CCOCC3)c2c1` (stereo partly drawn) [Example 55, 4-{6-Fluoro-3-[4-(^2H3)methyl-1-methyl-1H-1,2,3-triazol-5-yl]-5-[(S)-oxan-4-yl(phenyl)methyl]-5H-pyrido[3,2-b]indol-7-yl}-4-methyl-1,3-oxazolidin-2-one], the IC50 (read-out: FRET BRD4 IC50) is under 1 nM.

Turning to `[2H]C([2H])([2H])c1nnn(C)c1-c1cnc2c3ccc(N4CCC(F)(F)CC4)cc3n(C(c3ncccc3F)C3CCOCC3)c2c1` (stereo not shown) [Example 66, 2-{[7-(4,4-Difluoropiperidin-1-yl)-3-[4-(^2H3)methyl-1-methyl-1H-1,2,3-triazol-5-yl]-5H-pyrido[3,2-b]indol-5-yl](oxan-4-yl)methyl}-3-fluoropyridine], the IC50 (read-out: FRET BRD4 IC50) was under 5 nM.

Take `[2H]C([2H])([2H])c1nnn(C)c1-c1cnc2c3ccc(N4CCCS4(=O)=O)c(F)c3n([C@H](c3ccccc3)C3CCOCC3)c2c1` [Example 58, 2-{6-Fluoro-3-[4-(^2H3)methyl-1-methyl-1H-1,2,3-triazol-5-yl]-5-[(S)-oxan-4-yl(phenyl)methyl]-5H-pyrido[3,2-b]indol-7-yl}-1λ^6,2-thiazolidine-1,1-dione]: under “read-out: FRET BRD4 IC50”, the IC50 is under 1 nM.

For `[2H]C([2H])([2H])c1nnn(C)c1-c1cnc2c3cc(N4CCc5ccccc5C4)ccc3n([C@H](c3ccc(F)cc3)C3CCOCC3)c2c1` [Example 43, 2-{5-[(S)-(4-Fluorophenyl)(oxan-4-yl)methyl]-3-[4-(^2H3)methyl-1-methyl-1H-1,2,3-triazol-5-yl]-5H-pyrido[3,2-b]indol-8-yl}-1,2,3,4-tetrahydroisoquinoline], under “read-out: FRET BRD4 IC50”, the IC50 was under 5 nM.

In the case of `Cc1nnn(C)c1-c1cnc2c3ccc(-c4cnn(C(C)C)c4)cc3n([C@H](c3ccccc3)C3CCOCC3)c2c1` [Example 16, 1,4-Dimethyl-5-{5-[(S)-oxan-4-yl(phenyl)methyl]-7-[1-(propan-2-yl)-1H-pyrazol-4-yl]-5H-pyrido[3,2-b]indol-3-yl}-1H-1,2,3-triazole], the IC50 (read-out: FRET BRD4 IC50) was under 5 nM.

`[2H]C([2H])([2H])c1nnn(C)c1-c1cnc2c3ccc(N4CCS(=O)(=O)CC4)cc3n([C@H](c3ccccc3)C3CCOCC3)c2c1` [Example 45, 4-{3-[4-(^2H3)Methyl-1-methyl-1H-1,2,3-triazol-5-yl]-5-[(S)-oxan-4-yl(phenyl)methyl]-5H-pyrido[3,2-b]indol-7-yl}-1λ^6-thiomorpholine-1,1-dione]: for the setting “read-out: FRET BRD4 IC50”, the IC50 was under 5 nM.

With `[2H]C([2H])([2H])c1nnn(C)c1-c1cnc2c3ccc(C4(O)CCN(C)CC4)c(F)c3n([C@H](c3ccccc3)C3CCOCC3)c2c1` [Example 54, 4-{6-Fluoro-3-[4-(^2H3)methyl-1-methyl-1H-1,2,3-triazol-5-yl]-5-[(S)-oxan-4-yl(phenyl)methyl]-5H-pyrido[3,2-b]indol-7-yl}-1-methylpiperidin-4-ol], the IC50 (FRET BRD4 IC50 (nM)) is under 1 nM.

As to `CC(=O)OCC(=O)N1CCC(c2ccc3c(c2)c2ncc(-c4c(C)nnn4C)cc2n3[C@H](c2ccccc2)C2CCOCC2)CC1` [Example 8, 2-{4-[3-(Dimethyl-1H-1,2,3-triazol-5-yl)-5-[(S)-oxan-4-yl(phenyl)methyl]-5H-pyrido[3,2-b]indol-8-yl]piperidin-1-yl}-2-oxoethyl acetate], the IC50 (read-out: FRET BRD4 IC50) was under 5 nM.

As for `Cc1nnn(C)c1-c1cnc2c3c(N4CCN(C5COC5)CC4)ccc(S(C)(=O)=O)c3n([C@H](c3ccccc3)C3CCOCC3)c2c1` [Example 23, 1-[3-(Dimethyl-1H-1,2,3-triazol-5-yl)-6-methanesulfonyl-5-[(S)-oxan-4-yl(phenyl)methyl]-5H-pyrido[3,2-b]indol-9-yl]-4-(oxetan-3-yl)piperazine], where the note is “read-out: FRET BRD4 IC50”, the IC50 is under 5 nM.

Take `[2H]C([2H])([2H])c1nnn(C)c1-c1cnc2c3ccc(N4CCC(S(C)(=O)=O)CC4)cc3n(C(c3ncccc3F)C3CCOCC3)c2c1` (stereo not shown) [Example 69, 3-Fluoro-2-{[7-(4-methanesulfonylpiperidin-1-yl)-3-[4-(^2H3)methyl-1-methyl-1H-1,2,3-triazol-5-yl]-5H-pyrido[3,2-b]indol-5-yl](oxan-4-yl)methyl}pyridine]: the IC50 (read-out: FRET BRD4 IC50) was under 1 nM.
